Experiment in all cases: NCI anticancer screen, dose series, 48 h
The subject of experiment [1] is A498 renal.
Experiment [2] concerns DU-145 prostate.
The subject of experiment [3] is HOP-62 NSCLC.
The test system of experiment [4] is MOLT-4 leukemia.
Experiment [5] deals with NCI/ADR-RES ovarian.
For experiment [6], the system named is OVCAR-3 ovarian.
For experiment [7], the system named is SNB-19 CNS.
Experiment [8] concerns T-47D breast.
Experiment [9] concerns UACC-257 melanoma.
In experiment [10] the test system is UACC-62 melanoma.

Several values for one entry are separate records, joined by “and”; a condition that tells them apart may be missing. Equal entries are not always repeated.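 Each compound was tested at five concentrations against cells in 96-well plates for 48 hours. GI50 = concentration required for 50% inhibition of growth. Definition used: TGI = concentration required for complete inhibition of growth.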

Regarding `O=C(CCl)Nc1cc(Cl)c(Cl)cc1Cl`, the TGI is over 10 µM in experiment [1]; 7.06 µM in [2]; 3.89 µM in experiment [3]; over 10 µM in experiment [4]; 5.31 µM in experiment [5]; 3.31 µM in experiment [6]. The TGI in experiment [7] is 4.43 µM; in [8] it was 5.59 µM; in experiment [9], 3.24 µM; in [10], 3.59 µM.
In the case of `O=C1C=CC(=Nc2cccc3c(N=C4C=CC(=O)O4)cccc23)O1`, the TGI in experiment [1] is over 100 µM; in experiment [2] it was over 100 µM; in experiment [3], over 100 µM; in experiment [4] it was 19.8 µM; in [5], over 100 µM; in [6] it was over 100 µM. Further, the TGI was over 100 µM in [7], over 100 µM in experiment [8], 55.6 µM in experiment [9] and over 100 µM in [10].
Consider `C(=Nc1cnc2ccccc2c1)c1ccc2ccccc2n1`, for which the TGI in experiment [1], in experiment [2], in experiment [3], in experiment [4], in experiment [5] and in experiment [6] was over 100 µM each time. The TGI in experiment [7], in [8], in [9] and in experiment [10] was over 100 µM each time.
For `C[C@@H](NC(=O)c1ncnc(N)c1Cl)c1ncc(C(=O)Nc2cc(C(F)(F)F)c(Cl)cn2)s1`, the GI50 is 7.94 µM in experiment [1]; 26.7 µM in [2]; 24.3 µM in [3]; 23 µM in [4]; 24.5 µM in [5]; 24.6 µM in [6]. The GI50 is 26.6 µM in experiment [7], 24.2 µM in [8], 0.478 µM in [9] and 0.402 µM in experiment [10]. The TGI in experiment [1] was 24.7 µM; in experiment [2], over 82.7 µM; in experiment [3], 84.8 µM; in experiment [4], 68.7 µM; in experiment [5], 82.5 µM; in experiment [6], 70 µM. The TGI in experiment [7] is over 100 µM; in experiment [8] it was over 83.8 µM; in experiment [9] it was 4.77 µM; in [10] it was 8.7 µM.
With `C/C(=N/O)c1ccc2c(c1)/C(=N/O)c1ccccc1-2`, the GI50 in experiment [1] was 34.9 µM; in experiment [2], 26.4 µM; in experiment [3] it was 25 µM; in [4], 20.2 µM; in experiment [5], 21 µM; in experiment [6] it was 25.5 µM. Also, the GI50 in [7] is 33.8 µM; in experiment [8], 24 µM; in experiment [9] it was 29.4 µM; in [10], 18.3 µM. Further, the TGI in [1] was over 100 µM; in experiment [2], 71 µM; in experiment [3], 56.4 µM; in experiment [4], 49.4 µM; in experiment [5] it was 48.6 µM; in experiment [6], 57.7 µM. The TGI in [7] is over 100 µM; in experiment [8], 52.7 µM; in experiment [9], 65.5 µM; in experiment [10], 37.5 µM.
Turning to `O=C1c2ccccc2C(=O)c2c1ccc1c(=O)n(-c3ccccc3C(F)(F)F)nnc21`, the GI50 in experiment [1] was 1.76 µM; in [2], 3.19 µM; in [3], 1.28 µM; in [4] it was 1.53 µM; in experiment [5], 2.05 µM; in experiment [6] it was 0.315 µM. Besides, the GI50 was 2.68 µM in experiment [7], 1.86 µM in experiment [8], 1.71 µM in experiment [9] and 1.52 µM in [10]. In addition, the TGI in [1] is 3.65 µM; in [2] it was over 100 µM; in [3], 19.1 µM; in [4], 8.12 µM; in experiment [5], 9.23 µM; in experiment [6] it was 1.42 µM. The TGI in [7] was found to be 31.2 µM; in [8], 6.98 µM; in experiment [9], 3.51 µM; in experiment [10], 3.21 µM.
For `O=C(/C=C/C(Cl)(Cl)Cl)Nc1ccc(Cl)cc1`, the TGI in [1] came out at 28.8 µM; in [2], 30.6 µM; in [3] it was 9.95 µM; in experiment [4] it was 3.28 µM; in experiment [5], 14 µM; in experiment [6], 17.3 µM. Further, the TGI in [7] stood at 32 µM; in [8] it was 7.84 µM; in experiment [9] it was 35.7 µM; in experiment [10], 21.2 µM.
`CCN(CC)CCN1C(=O)C2C3C(=O)CC(C)(CC3C)C2C1=O` (centres undefined): the GI50 in experiment [1], in experiment [2], in experiment [3], in experiment [4], in experiment [5] and in [7] was over 100 µM in each case. Further, the GI50 in experiment [8], in [9] and in experiment [10] was over 100 µM throughout. For the same compound, the TGI in [1], in experiment [2], in [3], in [4], in experiment [5] and in experiment [7] was over 100 µM in each case. Also, the TGI in experiment [8], in experiment [9] and in experiment [10] was over 100 µM throughout.
With `CN(C)C=NC1CCC(C(C)(C)C)CC1` (centres undefined), the TGI was 49.6 µM in experiment [1]; 61.3 µM in experiment [2]; 32.3 µM in [3]; 32.2 µM in experiment [4]; 32.8 µM in experiment [5]; 28.8 µM in [6]. Further, the TGI in experiment [7] turned out to be 39.9 µM; in experiment [8], 37.5 µM; in experiment [9] it was 29.1 µM; in experiment [10] it was 33.8 µM.
For `CN(C)Cc1ccc(C(C)(C)C)cc1-c1cc(C(C)(C)C)ccc1CN(C)C`, the TGI in experiment [1], in [2], in experiment [3], in [4], in [5] and in experiment [6] was over 100 µM each time. Also, the TGI in experiment [7] is over 100 µM; in experiment [8], over 100 µM; in experiment [9], 51.7 µM; in experiment [10] it was over 100 µM.
For the compound `CC(C)(C)NC(=O)[C@H]1CC[C@H]2[C@@H]3CC[C@H]4NC(=O)C=C[C@]4(C)[C@H]3CC[C@]12C`, the GI50 in [1] is 54.2 µM; in [2], over 100 µM; in experiment [3] it was over 100 µM; in [4], 66 µM and > 100 µM; in [5] it was over 100 µM; in experiment [6] it was over 100 µM. The GI50 in experiment [7] was over 100 µM; in [8], > 100 µM and 67.2 µM; in [9] it was 48.3 µM and > 100 µM; in experiment [10], over 100 µM. The TGI in experiment [1], in [2], in [3], in experiment [4], in experiment [5] and in [6] was over 100 µM in each case. The TGI in experiment [7], in experiment [8], in [9] and in [10] was over 100 µM throughout.
As to `NC(=O)CC1(O)C=C(Br)C(=O)C(Br)=C1`, the GI50 in experiment [1] was 15.8 µM; in experiment [2], 6.05 µM; in experiment [3] it was 26.1 µM; in experiment [4], 2.29 µM; in experiment [5] it was 10.1 µM; in [6], 2.22 µM. Moreover, the GI50 in [7] was 18.1 µM; in experiment [8] it was 2.57 µM; in experiment [9], 1.9 µM; in experiment [10] it was 4.21 µM. The TGI is 29.3 µM in experiment [1]; 19 µM in experiment [2]; over 61.2 µM in experiment [3]; 5.35 µM in [4]; over 94.4 µM in [5]; 5.34 µM in [6]. Further, the TGI in [7] is 32.6 µM; in [8], 7.87 µM; in [9], 4.06 µM; in experiment [10] it was 15.8 µM.
For `COc1ccc(Cl)cc1Nc1nc(C(F)(F)F)ccc1C(=O)N/N=C/c1cccnc1`, the GI50 was 1.23 µM in experiment [1]; 7.22 µM in [2]; 5.22 µM in [3]; 1.66 µM in experiment [4]; 3.8 µM in experiment [5]; 0.665 µM in experiment [6]. The GI50 in [7] is 3.78 µM; in experiment [8], 2.12 µM; in experiment [9], 3.93 µM; in [10] it was 3.69 µM. Also, the TGI in [1] is over 100 µM; in experiment [2], over 100 µM; in experiment [3], 75 µM; in experiment [4], over 100 µM; in experiment [5] it was over 100 µM; in experiment [6], 6.82 µM. Besides, the TGI in experiment [7] was over 100 µM; in experiment [8], over 100 µM; in experiment [9] it was 9.88 µM; in experiment [10] it was over 100 µM.
As for `O=c1c2ccccc2nc(-c2ccccc2Cl)n1-c1nnc(C(F)(F)F)s1`, the GI50 in experiment [1] is 1.77 µM; in experiment [2], 5.03 µM; in experiment [3], 6.09 µM; in experiment [4], 3.99 µM; in experiment [5], 3.13 µM; in experiment [6] it was 3.25 µM. The GI50 in experiment [7] was 3.66 µM; in experiment [8] it was 3.76 µM; in experiment [10], 2.85 µM. Further, the TGI in experiment [1] was 5.07 µM; in experiment [2], over 100 µM; in [3], 29.7 µM; in experiment [4], 20.4 µM; in experiment [5], over 100 µM; in [6], 11.4 µM. In addition, the TGI is over 100 µM in experiment [7], over 100 µM in [8] and 14.4 µM in experiment [10].
As for `COc1ccccc1/C=C/C1=C(C)CCC(c2ccccc2OC)C1C` (centres undefined), the GI50 in experiment [1] was 0.0923 µM; in experiment [2], 0.22 µM; in [3], 0.153 µM; in [5] it was 0.105 µM; in experiment [7] it was 0.226 µM; in experiment [8], 4.36 µM. Further, the GI50 in experiment [10] is 0.0684 µM. Further, the TGI in experiment [1] was 0.534 µM; in experiment [2], 0.868 µM; in experiment [3] it was 19.3 µM; in experiment [7] it was over 100 µM; in experiment [8], over 100 µM; in experiment [9] it was over 89.8 µM. This compound had a TGI in [10] of 40.3 µM.
For `CCCCCCCCCC(CCCC(O)CC(=O)O)OC1OC(COC2OC(C)C(OC(C)=O)C(O)C2O)C(O)C(O)C1OC1OC(CO)C(O)C(O)C1OC1OC(C)C(OC(=O)CC(C)C)C(O)C1O` (centres undefined), the GI50 in [2], in [3], in [4], in experiment [5], in [6] and in experiment [7] was over 35 µM throughout. Also, the GI50 in [8], in experiment [9] and in [10] was over 35 µM each time. The TGI in experiment [2], in experiment [3], in experiment [4], in experiment [5], in experiment [6] and in [7] was over 35 µM throughout. For the same compound, the TGI in [8], in experiment [9] and in experiment [10] was over 35 µM each time.
In the case of `O=CNc1ccc(S(=O)(=O)c2ccc(NC=O)cc2)cc1`, the TGI in experiment [2], in experiment [3], in experiment [4], in experiment [5], in experiment [6] and in experiment [7] was over 100 µM each time. Besides, the TGI in experiment [8], in [9] and in experiment [10] was over 100 µM each time.
`N#Cc1ccccc1C#C/C=C\C#CC#C/C=C\C#Cc1ccccc1C#N`: the GI50 is 29.3 µM in [2]; 16.5 µM in experiment [3]; 15.6 µM in experiment [4]; 18.5 µM in experiment [5]; 4.55 µM in experiment [6]; 7.27 µM in experiment [7]. For the same compound, the GI50 in [8] was 10.3 µM; in experiment [9], 52.7 µM; in experiment [10] it was 14.7 µM. Further, the TGI is over 100 µM in [2]; 43.5 µM in experiment [3]; 89.3 µM in experiment [4]; 68.2 µM in experiment [5]; 21.4 µM in experiment [6]; over 100 µM in experiment [7]. Further, the TGI in experiment [8] was 46.5 µM; in experiment [9], over 100 µM; in experiment [10], 40.6 µM.
Turning to `O=C(O)c1c(Cl)c(Cl)c(Cl)c(Cl)c1C(=O)Nc1ccc2cn[nH]c2c1`, the TGI in experiment [1], in experiment [2], in experiment [3], in [5], in experiment [6] and in experiment [7] was over 100 µM throughout. The TGI in experiment [8], in experiment [9] and in [10] was over 100 µM each time.

(Values after PubChem BioAssay (NCI).)
